In ChEMBL document CHEMBL1155507, “Synthesis, SAR and evaluation of [1,4']-bipiperidinyl-4-yl-imidazolidin-2-one derivatives as novel CCR5 antagonists” (Bioorg Med Chem Lett, 2010):

Experiments:
[1] = Intrinsic clearance in human liver microsomes per mg of protein; format: ADME, Microsome
[2] = system: Human immunodeficiency virus 1; assay: Antiviral activity against HIV1 NL4-3 infected in human JC53-BL cells assessed as luciferase activity after 3 days post infection; format: functional, organism-based; settings: Human immunodeficiency virus 1, NL4-3, JC53BL, 72 h
[3] = Permeability from apical to basolateral side of human Caco-2 cells after 21 days; format: ADME, cell-based; settings: read-out: permeability
[4] = system: Caco-2; assay: Efflux ratio of permeability from basolateral to apical over apical to basolateral side in human Caco-2 cells after 21 days; format: ADME, cell-based; settings: caco-2, 504 h
[5] = molecular target: C-C chemokine receptor type 5 (Homo sapiens, UniProt P51681); assay: Binding affinity at CCR5 receptor by radiolabeled RANTES binding assay
[6] = (§1) Oral bioavailability in rat at 1 mg/kg; format: ADME, organism-based; settings: in vivo
[7] = system: Liver microsomes; assay: Intrinsic clearance in rat liver microsomes; format: ADME, Microsome
[8] = (§2) AUC in rat at 1 mg/kg, po; format: ADME, organism-based, Plasma; set-up: dose 1 mg/kg, route oral; settings: plasma
[9] = Clearance in rat at 1 mg/kg, iv; format: ADME, organism-based; set-up: dose 1 mg/kg, route intravenous; settings: in vivo
[10] = Cmax in rat at 1 mg/kg, po; format: ADME, organism-based; set-up: dose 1 mg/kg, route oral; settings: in vivo
[11] = Half life in rat at 1 mg/kg, iv; format: ADME, organism-based; set-up: dose 1 mg/kg, route intravenous; settings: in vivo
[12] = Oral bioavailability in cynomolgus monkey at 1 mg/kg; format: ADME, organism-based, Macaca fascicularis; settings: in vivo
[13] = Intrinsic clearance in cynomolgus monkey liver microsomes; format: ADME, Macaca fascicularis, Microsome
[14] = AUC in cynomolgus monkey at 1 mg/kg, po; format: ADME, organism-based, Macaca fascicularis; set-up: dose 1 mg/kg, route oral; settings: plasma
[15] = Clearance in cynomolgus monkey at 1 mg/kg, iv; format: ADME, organism-based, Macaca fascicularis; set-up: dose 1 mg/kg, route intravenous; settings: in vivo
[16] = Half life in cynomolgus monkey at 1 mg/kg, iv; format: ADME, organism-based, Macaca fascicularis; set-up: dose 1 mg/kg, route intravenous; settings: in vivo
[17] = Cmax in cynomolgus monkey at 1 mg/kg, po; format: ADME, organism-based, Macaca fascicularis; set-up: dose 1 mg/kg, route oral; settings: in vivo
[18] = system: Rattus norvegicus; assay: as §1; format: ADME, organism-based; settings: in vivo
[19] = system: Rattus norvegicus; assay: as §2; format: ADME, organism-based, Plasma; set-up: dose 1 mg/kg, route oral; settings: in vivo
[20] = molecular target: hERG (KCNH2) (Homo sapiens, UniProt Q12809); assay: Inhibition of human ERG by patch clamp technique
Sequence of hERG (KCNH2) (Q12809 whole entry): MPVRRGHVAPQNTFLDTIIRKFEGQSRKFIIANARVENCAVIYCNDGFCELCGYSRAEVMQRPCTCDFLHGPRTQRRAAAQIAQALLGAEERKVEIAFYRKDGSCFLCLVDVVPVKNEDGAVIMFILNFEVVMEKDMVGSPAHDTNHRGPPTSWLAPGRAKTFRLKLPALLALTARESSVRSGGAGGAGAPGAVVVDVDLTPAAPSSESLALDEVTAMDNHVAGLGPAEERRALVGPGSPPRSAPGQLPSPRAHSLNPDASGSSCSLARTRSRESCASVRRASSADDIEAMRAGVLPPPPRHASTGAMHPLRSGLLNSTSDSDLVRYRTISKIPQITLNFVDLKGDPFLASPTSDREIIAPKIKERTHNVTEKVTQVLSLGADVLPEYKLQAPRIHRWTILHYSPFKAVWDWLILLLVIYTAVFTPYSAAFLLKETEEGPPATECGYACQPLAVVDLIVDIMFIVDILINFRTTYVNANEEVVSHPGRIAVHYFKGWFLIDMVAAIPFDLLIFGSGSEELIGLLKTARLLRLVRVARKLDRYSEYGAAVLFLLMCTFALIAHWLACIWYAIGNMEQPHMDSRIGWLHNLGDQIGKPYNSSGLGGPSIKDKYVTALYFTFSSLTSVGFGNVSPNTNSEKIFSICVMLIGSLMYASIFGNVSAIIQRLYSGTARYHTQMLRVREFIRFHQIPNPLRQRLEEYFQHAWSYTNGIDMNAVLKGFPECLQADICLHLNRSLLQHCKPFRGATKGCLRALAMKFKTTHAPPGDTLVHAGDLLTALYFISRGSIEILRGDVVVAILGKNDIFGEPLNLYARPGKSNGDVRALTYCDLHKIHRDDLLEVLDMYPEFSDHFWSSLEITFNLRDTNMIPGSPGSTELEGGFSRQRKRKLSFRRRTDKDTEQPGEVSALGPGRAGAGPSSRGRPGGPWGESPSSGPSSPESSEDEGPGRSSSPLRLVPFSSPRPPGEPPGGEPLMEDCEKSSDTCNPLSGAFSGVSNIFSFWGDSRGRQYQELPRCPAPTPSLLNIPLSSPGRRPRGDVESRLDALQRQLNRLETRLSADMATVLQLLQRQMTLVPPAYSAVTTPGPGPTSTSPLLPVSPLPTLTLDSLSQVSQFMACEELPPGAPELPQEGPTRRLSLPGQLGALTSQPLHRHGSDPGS

Sequence of C-C chemokine receptor type 5 (P51681 whole entry): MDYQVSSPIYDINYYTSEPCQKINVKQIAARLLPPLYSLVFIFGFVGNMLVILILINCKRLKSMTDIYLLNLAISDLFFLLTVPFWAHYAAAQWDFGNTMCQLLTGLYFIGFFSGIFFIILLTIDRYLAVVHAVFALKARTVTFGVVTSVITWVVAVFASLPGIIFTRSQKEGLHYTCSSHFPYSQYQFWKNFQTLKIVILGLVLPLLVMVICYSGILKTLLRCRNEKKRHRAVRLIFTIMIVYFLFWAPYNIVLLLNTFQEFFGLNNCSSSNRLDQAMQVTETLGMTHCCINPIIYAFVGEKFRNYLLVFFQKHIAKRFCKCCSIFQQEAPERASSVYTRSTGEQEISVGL

Row | microsomal CLint [1] [µL/min/mg] | IC50 [2] [nM] | Papp A→B [3] [×10⁻⁶ cm/s] | Ratio [4] | IC50 [5] [nM] | Compound | also measured
1 | 44 | 22 | 0.6 | 25 | 24 | Cc1cc(C#N)nc(C)c1C(=O)N1CCC(C)(N2CCC(N3C(=O)N(C)C[C@H]3c3ccccc3)CC2)CC1 | 
2 | 53 | 25 | 0.7 | 10 | 26 | CNC(=O)N1CCC(CN2C[C@@H](c3ccccc3)N(C3CCN(C4(C)CCN(C(=O)c5c(C)cc(C#N)nc5C)CC4)CC3)C2=O)CC1 | 
3 | 8 | > 625 | 0.6 | 28 |  | Cc1ncnc(C)c1C(=O)N1CCC(C)(N2CCC(N3C(=O)N(C4CCOCC4)C[C@H]3c3ccccc3)CC2)CC1 | 
4 | 155 | 26 | 0.3 | 56 |  | COC(=O)N1CCC(CN2C[C@@H](c3ccccc3)N(C3CCN(C4(C)CCN(C(=O)c5c(C)ncnc5C)CC4)CC3)C2=O)CC1 | 
5 | 224 | 7 | 0.2 | 38 | 34 | Cc1ncnc(C)c1C(=O)N1CCC(C)(N2CCC(N3C(=O)N(CC4CCN(S(C)(=O)=O)CC4)C[C@H]3c3ccccc3)CC2)CC1 | 
6 | 13 | 99 | 0.1 | 13 | 32 | CNC(=O)N1CCC(CN2C[C@@H](c3ccccc3)N(C3CCN(C4(C)CCN(C(=O)c5c(C)ncnc5C)CC4)CC3)C2=O)CC1 | 
7 | 69 | 8 | 1.4 | 13 | 62 | CO[C@H]1CC[C@H](CN2C[C@@H](c3ccccc3)N(C3CCN(C4(C)CCN(C(=O)c5c(C)ncnc5C)CC4)CC3)C2=O)CC1 | 
8 | 47 | 3 | 3 | 4 | 6 | CCO[C@H]1CC[C@H](CN2C[C@@H](c3ccccc3)N(C3CCN(C4(C)CCN(C(=O)c5c(C)ncnc5C)CC4)CC3)C2=O)CC1 | bioavailability [6]: 10%; CL [7]: 89 µL/min; AUC [8]: 49 ng·h/mL; clearance [9]: 65 mL/min/kg; Cmax [10]: 21 ng/mL; half-life [11]: 0.8 h
9 | 12 | 8 | 0.2 | 61 | 20 | Cc1ncnc(C)c1C(=O)N1CCC(C)(N2CCC(N3C(=O)N(C[C@H]4CC[C@H](O)CC4)C[C@H]3c3ccccc3)CC2)CC1 | 
10 | 57 | 2 | 1 | 20 | 12 | Cc1cc(C#N)nc(C)c1C(=O)N1CCC(C)(N2CCC(N3C(=O)N(CC4CCOCC4)C[C@H]3c3ccccc3)CC2)CC1 | 
11 | 96 | 25 | 0.8 | 24 | 8 | Cc1ncnc(C)c1C(=O)N1CCC(C)(N2CCC(N3C(=O)N(CCC4CCOCC4)C[C@H]3c3ccccc3)CC2)CC1 | 
12 | 16 | 32 | 0.5 | 29 | 20 | Cc1ncnc(C)c1C(=O)N1CCC(C)(N2CCC(N3C(=O)N(CC4CCOCC4)C[C@H]3c3ccccc3)CC2)CC1 | bioavailability [12]: 14%; microsomal CLint [13]: 65 µL/min/mg; AUC [14]: 55 ng·h/mL; clearance [15]: 39 mL/min/kg; half-life [16]: 1.9 h; Cmax [17]: 16 ng/mL
13 |  | > 650 |  |  | > 500 | Cc1ncnc(C)c1C(=O)N1CCC(C)(N2CCC(N3C(=O)N(CC4CCOCC4)C[C@@H]3c3ccccc3)CC2)CC1 | 
14 | 15 | 7 | 1 | 12 | 21 | Cc1cc(C#N)nc(C)c1C(=O)N1CCC(C)(N2CCC(N3C(=O)N(C4CCOCC4)C[C@H]3c3ccccc3)CC2)CC1 | F [18]: 23%; CL [7]: 55 µL/min; AUC [19]: 85 ng·h/mL; Cmax [10]: 43 ng/mL; half-life [11]: 5.7 h
15 | 34 | 3 | 0.4 | 47 | 33 | Cc1cc(C#N)nc(C)c1C(=O)N1CCC(C)(N2CCC(N3C(=O)N(C[C@H]4CC[C@H](O)CC4)C[C@H]3c3ccccc3)CC2)CC1 | 
16 | 18 | 22 | 0.1 | 77 | 12 | Cc1cc(C#N)nc(C)c1C(=O)N1CCC(C)(N2CCC(N3C(=O)N(CC4CCOCC4)C[C@@H]3c3ccccn3)CC2)CC1 | bioavailability [6]: 19%; CL [7]: 87 µL/min; AUC [8]: 187 ng·h/mL; clearance [9]: 29 mL/min/kg; Cmax [10]: 38 ng/mL; half-life [11]: 1 h
17 | 40 | 9 | 0.5 | 30 | 25 | CCO[C@H]1CC[C@H](CN2C[C@H](c3ccccn3)N(C3CCN(C4(C)CCN(C(=O)c5c(C)cc(C#N)nc5C)CC4)CC3)C2=O)CC1 | 
18 | 9 | > 625 | 0.4 | 52 | 84 | CCCCC1CN(C2CCOCC2)C(=O)N1C1CCN(C2(C)CCN(C(=O)c3c(C)ncnc3C)CC2)CC1 (racemic) | 
19 | 36 | 335 | 0.4 | 40 | 43 | CCCCC1CN(CC2CCOCC2)C(=O)N1C1CCN(C2(C)CCN(C(=O)c3c(C)ncnc3C)CC2)CC1 (racemic) | 
20 |  |  |  |  |  | Cc1cc(C#N)nc(C)c1C(=O)N1CCC(C)(N2CCC(N3C(=O)N(C4CCOCC4)CC3c3ccccc3)CC2)CC1 (racemic) | bioavailability [12]: 42%; microsomal CLint [13]: 33 µL/min/mg; AUC [14]: 418 ng·h/mL; clearance [15]: 17 mL/min/kg; IC20 [20]: 3500 nM; half-life [16]: 1.9 h; Cmax [17]: 133 ng/mL
21 | 31 | 47 | 0.4 | 33 | 27 | Cc1ncnc(C)c1C(=O)N1CCC(C)(N2CCC(N3C(=O)N(CC4CCOCC4)CC3c3ccccc3)CC2)CC1 (racemic) | bioavailability [6]: 27%; CL [7]: 14 µL/min; IC20 [20]: 22000 nM; AUC [8]: 189 ng·h/mL; clearance [9]: 44 mL/min/kg; Cmax [10]: 56 ng/mL; half-life [11]: 1.5 h
22 | 20 | 41 | 1 | 14 | 65 | CCCCC1CN(C2CCOCC2)C(=O)N1C1CCN(C2(C)CCN(C(=O)c3c(C)cc(C#N)nc3C)CC2)CC1 (racemic) | 
